Where a name gives a salt, the structure may show the parent alone.

The target in this test is T1, human Npt2a (Homo sapiens, UniProt Q06495).
T1 construct: expressed in transfected cells
T1 sequence (Q06495 1-639): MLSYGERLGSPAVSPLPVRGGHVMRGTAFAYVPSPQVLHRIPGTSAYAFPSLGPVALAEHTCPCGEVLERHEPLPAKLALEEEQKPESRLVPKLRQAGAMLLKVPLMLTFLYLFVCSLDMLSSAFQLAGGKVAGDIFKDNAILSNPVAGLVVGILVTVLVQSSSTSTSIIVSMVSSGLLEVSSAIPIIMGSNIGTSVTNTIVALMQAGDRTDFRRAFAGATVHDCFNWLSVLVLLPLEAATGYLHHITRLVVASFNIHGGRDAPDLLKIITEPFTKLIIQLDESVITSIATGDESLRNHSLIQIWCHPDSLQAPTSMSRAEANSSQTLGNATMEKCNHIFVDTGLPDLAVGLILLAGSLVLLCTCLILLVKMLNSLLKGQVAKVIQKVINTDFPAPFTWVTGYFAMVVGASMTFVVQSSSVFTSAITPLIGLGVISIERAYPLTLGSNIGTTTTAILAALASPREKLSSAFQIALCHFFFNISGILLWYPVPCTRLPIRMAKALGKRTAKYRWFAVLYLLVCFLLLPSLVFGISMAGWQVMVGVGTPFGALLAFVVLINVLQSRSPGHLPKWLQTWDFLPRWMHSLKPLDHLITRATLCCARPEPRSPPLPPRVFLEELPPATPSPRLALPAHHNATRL
The experiment in a line: Npt2a activity cell based assay, membrane potential dye, CHO T-REx hNpt2a cells. The note with it: doxycycline-induced, depolarization by sodium phosphate influx, average or median values if tested more than once. The method, boiled down: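 Cells were doxycycline-induced CHO T-REx hNpt2a, dye-loaded and pretreated 5 min at RT with 1 nM–50 μM compound in Na-free pH 7.4 buffer. IC50 was fit to the post/pre-trigger fluorescence ratio.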
Take `COc1c(C)nn(-c2cc(Nc3nn(C)c(-c4ccc(F)cn4)c3C)ncn2)c1C` [Example 461, N-[5-(5-fluoropyridin-2-yl)-1,4-dimethyl-1H-pyrazol-3-yl]-6-(4-methoxy-3,5-dimethyl-1H-pyrazol-1-yl)pyrimidin-4-amine]: 170 nM corresponded to half-maximal inhibition (IC50). Then `COc1c(-c2ccc(C#N)cc2)nn(C)c1Nc1cc(-n2nc(C)c(OC)c2C)ncn1` [Example 462, 4-(4-methoxy-5-{[6-(4-methoxy-3,5-dimethyl-1H-pyrazol-1-yl)pyrimidin-4-yl]amino}-1-methyl-1H-pyrazol-3-yl)benzonitrile], with 25 nM. The compound `COc1c(C)nn(-c2cc(Nc3c(C)nn(-c4ccc(F)cc4)c3C)ncn2)c1C` [Example 463, N-[1-(4-fluorophenyl)-3,5-dimethyl-1H-pyrazol-4-yl]-6-(4-methoxy-3,5-dimethyl-1H-pyrazol-1-yl)pyrimidin-4-amine] came in with a 50% inhibitory concentration (IC50) of 34 nM. Next, `COc1c(C)nn(-c2cc(Nc3c(C)c(-c4ccc(C#N)cc4)nn3CC3CC3)ncn2)c1C` [Example 464, 4-[1-(cyclopropylmethyl)-5-{[6-(4-methoxy-3,5-dimethyl-1H-pyrazol-1-yl)pyrimidin-4-yl]amino}-4-methyl-1H-pyrazol-3-yl]benzonitrile]: 2 nM; `Cc1cc(C(F)F)n(-c2cc(Nc3c(C)c(-c4ccc(F)cn4)nn3C)ncn2)n1` [Example 465, 6-[5-(difluoromethyl)-3-methyl-1H-pyrazol-1-yl]-N-[3-(5-fluoropyridin-2-yl)-1,4-dimethyl-1H-pyrazol-5-yl]pyrimidin-4-amine]: 170 nM. For `Cc1nn(-c2cc(Nc3c(C)c(-c4ccc(F)cc4)nn3CC3CC3)ncn2)c(C)c1[N+](=O)[O-]` [Example 466, N-[1-(cyclopropylmethyl)-3-(4-fluorophenyl)-4-methyl-1H-pyrazol-5-yl]-6-(3,5-dimethyl-4-nitro-1H-pyrazol-1-yl)pyrimidin-4-amine], 11 nM corresponded to half-maximal inhibition (IC50).

The compound `Cc1cc(C)n(-c2cc(Nc3c(C)c(-c4ccc(F)cn4)nn3C)ncn2)n1` [Example 467, 6-(3,5-dimethyl-1H-pyrazol-1-yl)-N-[3-(5-fluoropyridin-2-yl)-1,4-dimethyl-1H-pyrazol-5-yl]pyrimidin-4-amine] showed an IC50 of 69 nM. Next, `COc1c(C)nn(-c2cc(Nc3c(C)c(-c4ccc(F)cn4)nn3C)ncn2)c1C` [Example 468, N-[3-(5-fluoropyridin-2-yl)-1,4-dimethyl-1H-pyrazol-5-yl]-6-(4-methoxy-3,5-dimethyl-1H-pyrazol-1-yl)pyrimidin-4-amine]: 300 nM; `Cc1nn(-c2cc(Nc3nn(C)c(-c4ccc(F)cc4)c3OC(F)F)ncn2)c(C)c1C(F)(F)F` [Example 469, N-[4-(difluoromethoxy)-5-(4-fluorophenyl)-1-methyl-1H-pyrazol-3-yl]-6-[3,5-dimethyl-4-(trifluoromethyl)-1H-pyrazol-1-yl]pyrimidin-4-amine]: 5 nM. As to `COc1c(C)nn(-c2cc(Nc3nn(C)c(-c4ccc(F)cc4)c3OC(F)F)ncn2)c1C` [Example 470, N-[4-(difluoromethoxy)-5-(4-fluorophenyl)-1-methyl-1H-pyrazol-3-yl]-6-(4-methoxy-3,5-dimethyl-1H-pyrazol-1-yl)pyrimidin-4-amine], the IC50 worked out at 3 nM. Then `Cc1nn(-c2cc(Nc3nn(C)c(-c4ccc(F)cc4)c3OC(F)F)ncn2)c(C)c1C#N` [Example 471, 1-(6-{[4-(difluoromethoxy)-5-(4-fluorophenyl)-1-methyl-1H-pyrazol-3-yl]amino}pyrimidin-4-yl)-3,5-dimethyl-1H-pyrazole-4-carbonitrile], with 7 nM. Turning to `Cc1c(-c2ccc(C#N)cc2)nn(C)c1Nc1cc(-n2[nH]c3c(c2=O)CCCC3)ncn1` [Example 472, 4-(1,4-dimethyl-5-{[6-(3-oxo-1,3,4,5,6,7-hexahydro-2H-indazol-2-yl)pyrimidin-4-yl]amino}-1H-pyrazol-3-yl)benzonitrile], half-maximal inhibition (IC50) was put at 880 nM. This IC50 is about 130-fold higher than that of the compound before. For `Cc1nn(-c2cc(Nc3c(C)c(-c4ccc(C(F)F)nc4)nn3C)ncn2)c(C)c1C(F)(F)F` [Example 473, N-{3-[6-(difluoromethyl)pyridin-3-yl]-1,4-dimethyl-1H-pyrazol-5-yl}-6-[3,5-dimethyl-4-(trifluoromethyl)-1H-pyrazol-1-yl]pyrimidin-4-amine], the half-maximal inhibitory concentration (IC50) came out at 160 nM. Against the preceding compound, the IC50 is about 5.5-fold lower. Then `Cc1nn(-c2cc(Nc3c(C)c(-c4ccc(C(F)F)nc4)nn3C)ncn2)c(C)c1Cl` [Example 474, 6-(4-chloro-3,5-dimethyl-1H-pyrazol-1-yl)-N-{3-[6-(difluoromethyl)pyridin-3-yl]-1,4-dimethyl-1H-pyrazol-5-yl}pyrimidin-4-amine], with 234 nM; and `Cc1cc(C(F)F)n(-c2cc(Nc3c(C)c(-c4ccc(OC(F)F)cc4)nn3CC3CC3)ncn2)n1` [Example 475, N-{1-(cyclopropylmethyl)-3-[4-(difluoromethoxy)phenyl]-4-methyl-1H-pyrazol-5-yl}-6-[5-(difluoromethyl)-3-methyl-1H-pyrazol-1-yl]pyrimidin-4-amine], with 215 nM; and `Cc1cc(C)n(-c2cc(Nc3c(C)c(-c4ccc(OC(F)F)cc4)nn3CC3CC3)ncn2)n1` [Example 476, N-{1-(cyclopropylmethyl)-3-[4-(difluoromethoxy)phenyl]-4-methyl-1H-pyrazol-5-yl}-6-(3,5-dimethyl-1H-pyrazol-1-yl)pyrimidin-4-amine], with 29 nM. Consider `Cc1nn(-c2cc(Nc3c(C)c(-c4ccc(OC(F)F)cc4)nn3CC3CC3)ncn2)c(C)c1C#N` [Example 477, 1-[6-({1-(cyclopropylmethyl)-3-[4-(difluoromethoxy)phenyl]-4-methyl-1H-pyrazol-5-yl}amino)pyrimidin-4-yl]-3,5-dimethyl-1H-pyrazole-4-carbonitrile], for which it took 98 nM to reach half-maximal inhibition (IC50).

Compound `Cc1nn(-c2cc(Nc3c(C)c(-c4ccc(OC(F)F)cc4)nn3CC3CC3)ncn2)c(C)c1C(F)(F)F` [Example 478, N-{1-(cyclopropylmethyl)-3-[4-(difluoromethoxy)phenyl]-4-methyl-1H-pyrazol-5-yl}-6-[3,5-dimethyl-4-(trifluoromethyl)-1H-pyrazol-1-yl]pyrimidin-4-amine] came in with an IC50 of 45 nM. Next, `Cc1nn(-c2cc(Nc3nn(C)c(-c4ccc(F)cn4)c3C)ncn2)c(C)c1Cl` [Example 479, 6-(4-chloro-3,5-dimethyl-1H-pyrazol-1-yl)-N-[5-(5-fluoropyridin-2-yl)-1,4-dimethyl-1H-pyrazol-3-yl]pyrimidin-4-amine]: 18 nM. In turn, `CNc1ccc(-c2nn(CC3CC3)c(Nc3cc(-n4nc(C)cc4C)ncn3)c2C)cc1` [Example 480, N-{1-(cyclopropylmethyl)-4-methyl-3-[4-(methylamino)phenyl]-1H-pyrazol-5-yl}-6-(3,5-dimethyl-1H-pyrazol-1-yl)pyrimidin-4-amine] displayed an IC50 of 375 nM. Then `Cc1cc(C(F)F)n(-c2cc(Nc3c(C)c(-c4ccc(C(F)F)nc4)nn3C)ncn2)n1` [Example 481, 6-[5-(difluoromethyl)-3-methyl-1H-pyrazol-1-yl]-N-{3-[6-(difluoromethyl)pyridin-3-yl]-1,4-dimethyl-1H-pyrazol-5-yl}pyrimidin-4-amine], with 1400 nM; and `COc1ccc(-c2nn(CC3CC3)c(Nc3cc(-n4nc(C)c(Cl)c4C)ncn3)c2C)cc1` [Example 482, 6-(4-chloro-3,5-dimethyl-1H-pyrazol-1-yl)-N-[1-(cyclopropylmethyl)-3-(4-methoxyphenyl)-4-methyl-1H-pyrazol-5-yl]pyrimidin-4-amine], with 52 nM; and `COc1ccc(-c2nn(CC3CC3)c(Nc3cc(-n4nc(C)c(C#N)c4C)ncn3)c2C)cc1` [Example 483, 1-(6-{[1-(cyclopropylmethyl)-3-(4-methoxyphenyl)-4-methyl-1H-pyrazol-5-yl]amino}pyrimidin-4-yl)-3,5-dimethyl-1H-pyrazole-4-carbonitrile], with 1250 nM. Take `Cc1nn(-c2cc(Nc3c(C)c(-c4ccc(F)cc4)nn3CC3CC3)ncn2)c(C)c1N` [Example 484, 6-(4-amino-3,5-dimethyl-1H-pyrazol-1-yl)-N-[1-(cyclopropylmethyl)-3-(4-fluorophenyl)-4-methyl-1H-pyrazol-5-yl]pyrimidin-4-amine trifluoroacetate]: the IC50 was 36 nM. Next, `Cc1nn(-c2cc(Nc3c(C)c(-c4ccc(C(F)F)nc4)nn3C)ncn2)c(C)c1F` [Example 485, N-{3-[6-(difluoromethyl)pyridin-3-yl]-1,4-dimethyl-1H-pyrazol-5-yl}-6-(4-fluoro-3,5-dimethyl-1H-pyrazol-1-yl)pyrimidin-4-amine]: 1350 nM; `COc1ccc(-c2nn(CC3CC3)c(Nc3cc(-n4nc(C)c(C(F)(F)F)c4C)ncn3)c2C)cc1` [Example 486, N-[1-(cyclopropylmethyl)-3-(4-methoxyphenyl)-4-methyl-1H-pyrazol-5-yl]-6-[3,5-dimethyl-4-(trifluoromethyl)-1H-pyrazol-1-yl]pyrimidin-4-amine]: 59 nM.

By IC50 is commonly meant the concentration that inhibits the measured activity by half. High values mean a need for much substance, low ones inhibition by little substance.
